Values quoted from earlier work in patent US20110008495A1, “LIQUID DIETARY SUPPLEMENT COMPOSITION” (NAWGAN PRODUCTS, LLC, priority 2009, published 2011).

Experiments:
[1] = midlife caffeine consumption
[2] = system: individuals diagnosed with mild to moderate Alzheimer's disease
diabetic animals = conditions: long-term consumption in distilled water

Cn1c(=O)c2c(ncn2C)n(C)c1=O [caffeine]
risk of dementia later in life [1]: significantly reduces

C[N+](C)(C)CCOP(=O)([O-])OC[C@H](O)CO [A-GPC, α-glyceryl phosphoryl choline]
absolute magnitude of change in overall cognitive ability (Mini Mental State Exam) ([2]; A-GPC over a 6 month period): offset a full year of typical decline
verbal memory and overall cognitive ability ([2]; A-GPC over a 6 month period vs patients not given A-GPC, 126 individuals): significant improvements

CC(C)=CCC/C(C)=C/C=C/C(C)=C/C=C/C(C)=C/C=C/C=C(C)/C=C/C=C(C)/C=C/C=C(\C)CCC=C(C)C [lycopene]
markers of inflammation and oxidation (diabetic animals): significantly decreased
memory performance (diabetic animals): significantly improved
